From patent publication US20250197368A1 (priority 2020, published 2025)

Legend:
[1] = biological target: human α2β3γ2 GABAARs (benzodiazepine site) (Homo sapiens (Human), UniProt P18507+P47869); assay: In vitro radioligand binding assay ([3H]Ro15-1788 displacement), α2-GABAAR Ki
Protocol: The affinity (Ki) of compounds for the benzodiazepine site of human recombinant GABAARs was measured by their ability to inhibit the binding of the selective benzodiazepine antagonist [^3H]Ro15-1788 ([^3H] flumazenil).
Mouse L(tk^−) cells stably expressing human α1β3γ2, α2β3γ2, α3β3γ2, α5β3γ2 GABAARs were generated by transfection of the individual subunits in the dexamethasone-inducible expression vector pMSGneo in mouse L(tk^−) cells (Hadingham et al., 1993, Mol. Pharmacol. 43:970-975 and 1993, Mol. Pharmacol. 44:1211-1218).
L(tk^−) cells stably expressing human α1β3γ2, α2β3γ2, α3β3γ2, α5β3γ2 GABAARs were maintained in DMEM F12 medium supplemented with 10% Foetal Bovine Serum, 1% Penicillin/Streptomycin and 1 mg/mL Geneticin G418 in an incubator at 37° C. with a humidified atmosphere with 5% CO2. Dexamethasone was added to the culture medium to induce GABAAR expression.
L(tk−) cells were harvested and membranes were prepared for each receptor combination in either TE buffer (10 mM Tris·CI/0.1 mM EDTA, pH 7.5) or phosphate buffer (K2PO4 10 mM, pH 7.0) (Hadingham et al. (1992) Proc. Natl. Acad. Sci. USA; 89 (14): 6378-82). Protein concentration, receptor expression and the Kd of [^3H]Ro15-1788 were determined before Ki value of the compounds were evaluated. For Kd evaluation, saturation binding curves were obtained by incubating membrane with various concentrations of [^3H]Ro15-1788 (82.5 Ci/mM), with nonspecific binding measured in the presence of 1-3 μM TP003.
For Ki evaluation, cell membranes were incubated with 4 nM [^3H]Ro15-1788 along with a range of concentrations of test compound. Nonspecific binding was determined using 1-3 μM TP003. All incubations were performed for 1 hour at 4° C. in assay buffer. The total assay volume was 0.5 mL, containing 40 μg/well α1β3γ2, 30 μg/well α2β3γ2, 40 μg/well α3β3γ2 and 30 μg/well for α5β3γ2 of membrane protein. Incubations were terminated by filtration and washing with ice cold Tris-HCl buffer (50 mM, pH=7.4) over Whatman GF/B filters and the radioactivity of the filters was measured using liquid scintillation counting.
The % inhibition of [^3H]Ro15-1788 binding was plotted as a function of compound concentration and the IC50 calculated. From the IC50, the affinity (Ki) was calculated using the method of Cheng and Prusoff using the Kd values obtained for [^3H]Ro15-1788.

[2] = tested on: human α2β3γ2 GABAARs; assay: In vitro electrophysiological recording assay (automated patch-clamp), α2-GABAAR relative efficacy; type: cell-based; conditions: % efficacy normalised to diazepam; GABA EC10-20; concentration generally >= 100 times Ki
Protocol: The efficacy of modulators was evaluated using the automated patch-clamp platforms QPatch16 (Sophion, Copenhagen, Denmark) or SyncroPatch 384PE (Nanion, Germany).
For QPatch electrophysiology testing L(tk^−) cells stably expressing human α1β3γ2, α2β3γ2, α3β3γ2, α5β3γ2 GABAARs were used. HEK293 cells stably expressing human α1β3γ2L, α2β3γ2L, α3β3γ2L and α5β3γ2L GABAARs were used for the SyncroPatch 384PE experiments.
All experiments were carried out at room temperature (20-22° C.) using a standard whole cell procedure and physiological solutions. Gigaseals were formed upon execution of a combined suction/voltage protocol with subsequent increased suction leading to the whole-cell configuration.
The currents recorded were acquired at either 1 KHz or 2 KHz and filtered using a Bessel filter. Whole-cell currents were measured at a holding potential of-65 mV (QPatch) or −80 mV (SyncroPatch).
For QPatch experiments, the extracellular solution contained of: 145 mM NaCl, 4 mM KCl, 1 mM MgCl2, 2 mM CaCl2), 10 mM HEPES, 10 mM D-glucose (pH 7.4), and the intracellular solution consisted of: 96 mM KCl, 28 mM CsCl, 25 mM KOH, 4.3 mM CaCl2), 1.4 mM MgCl2, 10 mM EGTA, 10 mM HEPES, 3 mM MgATP (pH 7.2). The osmolarities of the extracellular and intracellular solutions were 305 and 295 mOsm respectively.
For SyncroPatch experiments, the extracellular recording solution contained: 140 mM NaCl, 4 mM KCl, 2 mM CaCl2), 1 mM MgCl2, 10 mM HEPES, 5 mM glucose (pH 7.4 with NaOH and osmolarity of c. 300-310 mOsm). The intracellular recording solution consisted of: 90 mM KCl, 50 mM KF, 1.5 mM MgCl2, 11.1 mM EGTA and 10 mM HEPES (pH 7.2 with KOH and osmolarity of c. 300 mOsm). 2 mM of NaATP was added to the intracellular solution on the day of testing.
The effects of modulators were evaluated in the presence of a submaximal GABA concentration, giving typically less than 30% activation of the response elicited by a saturating GABA concentration. To check and ensure baseline current stability before compound addition, two to five consecutive applications of GABA EC10-20 separated by wash steps were performed before compound addition. The test compound was applied 1 min at least prior to co-application with GABA EC10-20. Following a further wash step, a saturating concentration of GABA was applied at the end of each recording, allowing the accurate evaluation for each cell of the percentage baseline activation elicited by the submaximal GABA applied.
The compounds were first dissolved in DMSO as a 10 mM stock and then further diluted to the testing concentrations so that the final DMSO concentration in the extracellular recording solution was 0.1% (QPatch) or 0.2% (SyncroPatch).
The % efficacy of modulators was determined from the GABA elicited currents recorded in the presence and absence of the test compound, using the formula:
[((compound peak current−leak)−(GABA peak current-leak))/(GABA peak current−leak)]*100,
where ‘leak’ is the leak baseline current at the holding potential, ‘compound peak current’ is the current elicited by co-application of compound and GABA, and ‘GABA peak current’ is the current elicited by GABA alone at the last GABA application before compound addition. The results were presented as ‘relative efficacy’ for each compound generally at a concentration equal or higher than 100 times their determined Ki. The relative efficacy of a compound was calculated by normalising its % efficacy to the corresponding % efficacy of diazepam that was separately determined.

Sequence of human α2β3γ2 GABAARs (benzodiazepine site) (P47869 29-451): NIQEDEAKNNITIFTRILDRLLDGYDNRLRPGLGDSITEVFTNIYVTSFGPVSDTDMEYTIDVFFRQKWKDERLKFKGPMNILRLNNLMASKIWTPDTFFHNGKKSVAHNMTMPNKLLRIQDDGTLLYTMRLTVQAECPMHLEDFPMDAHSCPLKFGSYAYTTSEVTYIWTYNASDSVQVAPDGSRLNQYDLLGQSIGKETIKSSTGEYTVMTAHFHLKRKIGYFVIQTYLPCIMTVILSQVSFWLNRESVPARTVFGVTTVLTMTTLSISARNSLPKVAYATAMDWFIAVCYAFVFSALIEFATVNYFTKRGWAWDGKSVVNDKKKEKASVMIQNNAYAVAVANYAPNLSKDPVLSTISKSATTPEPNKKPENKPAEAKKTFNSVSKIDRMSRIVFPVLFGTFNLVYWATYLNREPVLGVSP
Sequence of human α2β3γ2 GABAARs (benzodiazepine site) (P28472 26-473 partner): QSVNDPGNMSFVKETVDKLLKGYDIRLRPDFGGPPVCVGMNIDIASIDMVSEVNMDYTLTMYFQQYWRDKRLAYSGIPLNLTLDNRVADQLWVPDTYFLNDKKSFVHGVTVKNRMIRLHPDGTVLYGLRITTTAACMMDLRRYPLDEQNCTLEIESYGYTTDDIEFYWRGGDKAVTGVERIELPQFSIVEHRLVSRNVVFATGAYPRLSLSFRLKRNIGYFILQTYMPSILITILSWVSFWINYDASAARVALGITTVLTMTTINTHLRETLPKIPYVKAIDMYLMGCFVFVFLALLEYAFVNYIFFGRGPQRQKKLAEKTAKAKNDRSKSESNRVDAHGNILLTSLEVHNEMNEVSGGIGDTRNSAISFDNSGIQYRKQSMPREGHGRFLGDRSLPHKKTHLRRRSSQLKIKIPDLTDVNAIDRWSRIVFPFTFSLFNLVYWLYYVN
Sequence of human α2β3γ2 GABAARs (benzodiazepine site) (P18507 40-475): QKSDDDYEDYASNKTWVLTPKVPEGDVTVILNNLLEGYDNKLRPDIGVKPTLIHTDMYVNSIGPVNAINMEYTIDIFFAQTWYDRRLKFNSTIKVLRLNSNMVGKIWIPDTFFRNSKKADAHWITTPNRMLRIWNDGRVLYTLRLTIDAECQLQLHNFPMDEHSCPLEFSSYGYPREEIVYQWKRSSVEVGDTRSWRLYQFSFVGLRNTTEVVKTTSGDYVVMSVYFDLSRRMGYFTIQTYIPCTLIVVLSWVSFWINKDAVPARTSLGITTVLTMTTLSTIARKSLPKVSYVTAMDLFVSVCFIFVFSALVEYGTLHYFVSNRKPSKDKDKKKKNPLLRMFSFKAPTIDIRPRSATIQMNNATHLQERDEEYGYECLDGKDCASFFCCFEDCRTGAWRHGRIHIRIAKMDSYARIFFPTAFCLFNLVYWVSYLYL

Row | Structure (SMILES) | Ki [1] [nM] | α2-GABAAR Relative Efficacy (vs. Diazepam) [2]
1 | CCCNC(=O)c1c(N)c2cccc(-c3cncc(C)n3)c2[nH]c1=O [Example 46, 4-Amino-8-(6-methylpyrazin-2-yl)-2-oxo-N-propyl-1,2-dihydroquinoline-3-carboxamide] | 2.37 | 0.02
2 | CCCNC(=O)c1c(N)c2cccc(-c3cncc(OC)n3)c2[nH]c1=O [Example 47, 4-Amino-8-(6-methoxypyrazin-2-yl)-2-oxo-N-propyl-1,2-dihydroquinoline-3-carboxamide] | 0.23 | 0.08
3 | CCCNC(=O)c1c(N)c2cccc(-c3cccc(OC)c3)c2[nH]c1=O [Example 48, 4-Amino-8-(3-methoxyphenyl)-2-oxo-N-propyl-1H-quinoline-3-carboxamide] | 1.84 | 0.39
4 | CCCNC(=O)c1c(N)c2cccc(-c3cc(OC)ccc3F)c2[nH]c1=O [Example 49, 4-Amino-8-(2-fluoro-5-methoxy-phenyl)-2-oxo-N-propyl-1H-quinoline-3-carboxamide] | 0.43 | 0.26
5 | CCCNC(=O)c1c(N)c2cccc(-c3c(F)cccc3F)c2[nH]c1=O [Example 50, 4-Amino-8-(2,6-difluorophenyl)-2-oxo-N-propyl-1H-quinoline-3-carboxamide] | 0.21 | 0.34
6 | CCCNC(=O)c1c(N)c2cccc(-c3c(C)noc3C)c2[nH]c1=O [Example 54, 4-Amino-8-(3,5-dimethylisoxazol-4-yl)-2-oxo-N-propyl-1H-quinoline-3-carboxamide] | 20 | 0.07
7 | CCNC(=O)c1c(N)c2cccc(-c3cnccc3OC)c2[nH]c1=O [Example 56, 4-Amino-N-ethyl-8-(4-methoxy-3-pyridyl)-2-oxo-1H-quinoline-3-carboxamide] | 6.62 | 0.34
8 | COc1ccncc1-c1cccc2c(N)c(C(=O)NCC3CC3)c(=O)[nH]c12 [Example 59, 4-Amino-N-(cyclopropylmethyl)-8-(4-methoxy-3-pyridyl)-2-oxo-1H-quinoline-3-carboxamide] | 2.01 | 0.27
9 | COc1ccncc1-c1cccc2c(N)c(C(=O)NCC(C)C)c(=O)[nH]c12 [Example 60, 4-Amino-N-isobutyl-8-(4-methoxy-3-pyridyl)-2-oxo-1H-quinoline-3-carboxamide] | 15.4 | 0.65
10 | COCCNC(=O)c1c(N)c2cccc(-c3cnccc3OC)c2[nH]c1=O [Example 63, 4-Amino-N-(2-methoxyethyl)-8-(4-methoxy-3-pyridyl)-2-oxo-1H-quinoline-3-carboxamide] | 24.5 | 0.65
11 | COc1ccncc1-c1cccc2c(N)c(C(=O)NCCO)c(=O)[nH]c12 [Example 64, 4-Amino-N-(2-hydroxyethyl)-8-(4-methoxy-3-pyridyl)-2-oxo-1H-quinoline-3-carboxamide] | 84.6 | 0.34
12 | COc1ccncc1-c1cccc2c(N)c(C(=O)NCCCF)c(=O)[nH]c12 [Example 67, 4-Amino-N-(3-fluoropropyl)-8-(4-methoxy-3-pyridyl)-2-oxo-1H-quinoline-3-carboxamide] | 3.74 | 0.54
13 | COc1ccncc1-c1cccc2c(N)c(C(=O)NCCC(F)F)c(=O)[nH]c12 [Example 68, 4-Amino-N-(3,3-difluoropropyl)-8-(4-methoxy-3-pyridyl)-2-oxo-1H-quinoline-3-carboxamide] | 4.88 | 0.54
14 | Cc1nn(C)cc1-c1cccc2c(N)c(C(=O)NCCC(F)(F)F)c(=O)[nH]c12 [Example 73, 4-Amino-8-(1,3-dimethylpyrazol-4-yl)-2-oxo-N-(3,3,3-trifluoropropyl)-1H-quinoline-3-carboxamide] | 3.08 | 0.48
15 | CCCNC(=O)c1c(N)c2cccc(-c3cccnc3OC)c2n(C)c1=O [Example 76, 4-Amino-8-(2-methoxy-3-pyridyl)-1-methyl-2-oxo-N-propyl-quinoline-3-carboxamide] | 6.23 | 0.42
16 | COc1ccncc1-c1cccc2c(N)c(C(=O)NCC3CC3)c(=O)n(C)c12 [Example 78, 4-Amino-N-(cyclopropylmethyl)-8-(4-methoxy-3-pyridyl)-1-methyl-2-oxo-quinoline-3-carboxamide] | 2.11 | 0.70
17 | COc1ccncc1-c1cccc2c(N)c(C(=O)NCC(C)C)c(=O)n(C)c12 [Example 79, 4-Amino-N-isobutyl-8-(4-methoxy-3-pyridyl)-1-methyl-2-oxo-quinoline-3-carboxamide] | 2.51 | 0.81
18 | CCCNC(=O)c1c(N)c2cccc(-c3cn(C)nc3C)c2n(C)c1=O [Example 80, 4-Amino-8-(1,3-dimethylpyrazol-4-yl)-1-methyl-2-oxo-N-propyl-quinoline-3-carboxamide] | 4.44 | 0.6
19 | Cc1nn(C)cc1-c1cccc2c(N)c(C(=O)NCC3CC3)c(=O)n(C)c12 [Example 81, 4-Amino-N-(cyclopropylmethyl)-8-(1,3-dimethylpyrazol-4-yl)-1-methyl-2-oxo-quinoline-3-carboxamide] | 2.19 | 0.81
20 | Cc1nn(C)cc1-c1cccc2c(N)c(C(=O)NCC(C)C)c(=O)n(C)c12 [Example 82, 4-Amino-8-(1,3-dimethylpyrazol-4-yl)-N-isobutyl-1-methyl-2-oxo-quinoline-3-carboxamide] | 6.66 | 0.31
